Reference: patent publication US20080207617A1, “Quinoline Derivatives and Quinazoline Derivatives Inhibiting Autophosphrylation of Flt3 and Medicinal Compositions Containing the Same” (KIRIN BEER KABUSHIKI KAISHA, priority 2002, published 2008)
Where a name gives a salt, the structure may show the parent alone.

What was measured:
MV4-11 = experiment: Cell growth inhibitory test MV4-11 (WST-1); type: cell-based, human; conditions: MV4-11 cells, 3 days culture
In short: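 MV4-11 leukemia cells (3×10^3/well, DMEM + 10% FCS) were cultured 3 days with compound in DMSO at 5% CO2. Growth read by WST-1 absorbance at 450 nm (ref 650 nm), normalized to untreated (100%) and cell-free (0%) wells; IC50 from multiple concentrations.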

FLT3 = biological target: T1, FLT3 (Homo sapiens, UniProt P36888); experiment: Inhibitory activity against FLT3 autophosphorylation using ELISA method; type: cell-based; conditions: MV4-11 cells, 1 hr with compound, read-out: IC50 of FLT3-phosphorylation
T1 sequence (P36888 with tags, fused parts or gaps INS600HVDFREYEYD): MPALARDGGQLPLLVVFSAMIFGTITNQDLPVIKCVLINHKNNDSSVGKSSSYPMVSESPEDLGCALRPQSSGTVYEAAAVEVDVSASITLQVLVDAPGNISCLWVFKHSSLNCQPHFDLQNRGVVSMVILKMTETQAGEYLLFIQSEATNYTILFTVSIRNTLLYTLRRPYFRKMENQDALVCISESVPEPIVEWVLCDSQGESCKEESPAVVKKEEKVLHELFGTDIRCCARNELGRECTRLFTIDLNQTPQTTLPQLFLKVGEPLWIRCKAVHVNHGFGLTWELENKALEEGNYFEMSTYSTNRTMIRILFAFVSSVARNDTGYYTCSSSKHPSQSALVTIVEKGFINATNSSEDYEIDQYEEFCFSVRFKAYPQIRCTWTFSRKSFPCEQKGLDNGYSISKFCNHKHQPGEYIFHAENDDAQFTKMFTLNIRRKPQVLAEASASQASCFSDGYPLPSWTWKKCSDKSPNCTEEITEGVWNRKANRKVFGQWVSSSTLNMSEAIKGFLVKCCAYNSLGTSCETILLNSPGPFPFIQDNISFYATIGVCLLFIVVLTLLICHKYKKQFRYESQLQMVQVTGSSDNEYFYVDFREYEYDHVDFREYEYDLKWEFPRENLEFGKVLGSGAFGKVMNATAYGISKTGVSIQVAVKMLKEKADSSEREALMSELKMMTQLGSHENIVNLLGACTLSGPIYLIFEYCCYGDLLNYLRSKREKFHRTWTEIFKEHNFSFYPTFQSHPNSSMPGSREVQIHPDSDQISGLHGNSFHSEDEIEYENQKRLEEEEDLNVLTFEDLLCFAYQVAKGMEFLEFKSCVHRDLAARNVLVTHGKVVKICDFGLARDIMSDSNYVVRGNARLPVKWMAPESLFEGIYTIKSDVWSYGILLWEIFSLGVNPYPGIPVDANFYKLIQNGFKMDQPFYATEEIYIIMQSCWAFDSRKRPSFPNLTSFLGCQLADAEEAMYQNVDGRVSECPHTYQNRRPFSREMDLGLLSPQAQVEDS
Experimental: Pharmacological Test Example 1
Measurement of Inhibitory Activity Against FLT3 Autophosphorylation Using ELISA Method
Human leukemia cells MV4-11 (ATCC number: CRL-9591) were cultured in an IMDM medium containing 10% fetal calf serum (purchased from SIGMA) within a 5% carbon dioxide incubator until 50 to 90% confluent. The harvested cells were seeded into 96-wells, plates, containing an IMDM medium containing 0.1% fetal calf serum, in a 96-well multiscreen plate in an amount of 5.0×10^5 per well, a solution of the test compound in dimethyl sulfoxide was added to each well, and the cultivation was continued at 37° C. for one hr. The medium was removed, followed by washing with phosphate buffered saline. A lysis buffer (60 μl) (20 mM HEPES (pH 7.4), 150 mM NaCl, 0.2% Triton X-100, 10% glycerol, 5 mM sodium orthovanadylate, 5 mM disodium ethylenediaminetetraacetate, and 2 mM Na4P2O7) was then added thereto. The mixture was shaken at 4° C. for 2 hr to prepare a cell extracts.
Separately, phosphate buffered saline (50 μl, pH 7.4) containing 5 μg/ml of anti-phospho-tyrosine antibody (PY20; purchased from Transduction Laboratories) was added to a 96-well microplate for ELISA (Maxisorp; purchased from NUNC), followed by standing at 4° C. overnight to form a solid phase on the wells. After washing of the plate, 250 μl of a blocking solution was added, followed by standing at room temperature for 3 hr to perform blocking. After washing, the whole quantity of the cell extract was transferred to the wells, and the plate was then allowed to stand at 4° C. overnight. After washing, an anti-FLT3 antibody (Flt3/Flk2 (C-20), purchased from Santa Cruz Biotechnology) was allowed to react at room temperature for 2 hr, and, after washing, a peroxidase-labeled anti-rabbit Ig antibody (purchased from Amersham) was allowed to react at room temperature for one hr. After washing, a chromophoric substrate for peroxidase (purchased from Sumitomo Bakelite Co., Ltd.) was added thereto to initiate a reaction. After a suitable level of color development, a reaction termination solution was added to stop the reaction, and the absorbance at 450 nm was measured with a microplate reader. The FLT3-phosphorylation activity for each well was determined by presuming the absorbance without the addition of the medicament to be 100% FLT3-phosphorylation activity and the absorbance with the addition of a large excess of a positive control (Compound 1, 10 μM) to be 0% FLT3-phosphorylation activity. The concentration of the test compound was varied on several levels, the FLT3-phosphorylation inhibitory activity was determined for each case, and the concentration of the test compound necessary for inhibiting 50% of FLT3-phosphorylation (IC50) was calculated.

Row | Structure (SMILES) | IC50 (MV4-11; Homo sapiens, MV4-11, 72 h) | IC50 (FLT3) | IC50 (MV4-11; hydrochloride)
1 | COc1cc2nccc(Oc3ccc(NC(=O)NCCC(C)(C)C)cc3)c2cc1OC [Compound 1, 1-[4-(6,7-Dimethoxy-quinolin-4-yloxy)-phenyl]-3-(3,3-dimethyl-butyl)-urea hydrochloride] | < 0.001 µM | 0.002 µM | 
2 | COc1cc2nccc(Oc3c(Cl)cc(NC(=O)NCCC(C)(C)C)cc3Cl)c2cc1OC [Compound 6, 1-[3,5-Dichloro-4-(6,7-dimethoxy-quinolin--4-yloxy)-phenyl]-3-(3,3-dimethyl-butyl)-urea] | 0.008 µM | 0.109 µM | 
3 | COc1cc2nccc(Oc3ccc(NC(=O)NCCC(C)(C)C)cc3Cl)c2cc1OC [Compound 8, 1-[3-Chloro-4-(6,7-dimethoxy-quinolin-4-yloxy)-phenyl]-3-(3,3-dimethyl-butyl)-urea] | 0.001 µM | < 0.001 µM | 
4 | COc1cc2nccc(Oc3ccc(NC(=O)NCCC(C)(C)C)cc3F)c2cc1OC [Compound 10, 1-[4-(6,7-Dimethoxy-quinolin-4-yloxy)-3-fluoro-phenyl]-3-(3,3-dimethyl-butyl)-urea hydrochloride] | < 0.001 µM | < 0.001 µM | 

The next lines start with the values.

Row | IC50 (MV4-11; Homo sapiens, MV4-11, 72 h) | IC50 (FLT3) | IC50 (MV4-11; hydrochloride) | Structure (SMILES)
5 |  | 0.308 µM | 0.025 µM | COc1cc2c(Oc3ccc(NC(=O)NCCC(C)(C)C)c(F)c3)ccnc2cc1OCCN1CCOCC1 [Compound 41, 1-(3,3-Dimethyl-butyl)-3-{2-fluoro-4-[6-methoxy-7-(2-morpholin-4-yl-ethoxy)-quinolin-4-yloxy]-phenyl}-urea hydrochloride]
6 | 0.012 µM | 0.216 µM |  | COc1cc2c(Oc3ccc(NC(=O)NCCC(C)(C)C)c(F)c3)ccnc2cc1OCCN1CCCCC1 [Compound 43, 1-(3,3-Dimethyl-butyl)-3-{2-fluoro-4-[6-methoxy-7-(2-piperidin-1-yl-ethoxy)-quinolin-4-yloxy]-phenyl}-urea hydrochloride]
7 | 0.002 µM | 0.2 µM |  | COc1cc2c(Oc3ccc(NC(=O)NCCC(C)(C)C)cc3F)ccnc2cc1OCCN1CCCCC1 [Compound 44, 1-(3,3-Dimethyl-butyl)-3-{3-fluoro-4-[6-methoxy-7-(2-piperidin-1-yl-ethoxy)-quinolin-4-yloxy]-phenyl}-urea]
